Where a name gives a salt, the structure may show the parent alone.
Legend:
[1] = tested on: Human adenocarcinoma (HT29) cells; assay: Antiproliferative activity in cancerous cells, cellular growth by haemocytometer; format: cell-based; details: 96 hours, controls = 100, read-out: Proliferation %
Method: Determination of the Antiproliferative Activity of the Compounds of the Invention in Cancerous Cells.
Human adenocarcinoma (HT29) cells taken from colon affected by cancerous process were transferred into plates with 24 wells containing a cellular culture medium formed by 10% of foetal bovine serum, penicillin (50 U/ml), streptomycin ([…]) and PEG 400 (polyethylenglycol). After 24 hours a part of the plates is inoculated with the tested compounds dissolved in the carrier (PEG 400). 96 hours after the inoculation of the compounds the cellular growth was measured by haemocytometer. The results, reported in Table 2, are expressed as percentage of the cellular proliferation with respect to the controls.

[2] = tested on: liver injury induced by concanavalin A; assay: Protection from liver injury induced by concanavalin A; format: in vivo; details: ip, plasmatic glutamic-pyruvic transaminase vs treated control group (=100), 8 hours after concanavalin A 0.3 mg/rat i.v.; for response vs control in vivo at 300 mg/kg: 300 mg/kg intraperitoneal; for response vs control in vivo at 500 mg/kg: 500 mg/kg intraperitoneal; for response vs control in vivo at 200 mg/kg: 200 mg/kg intraperitoneal
Text: Determination of the capability of the compounds of the invention to protect the animals from the liver injury induced by concanavalin A.
The model in vivo used in the present example has been described in Tiegs G, Hentshel J, A Wendel. A T cell-dependent experimental liver injury in mice induced by Concanavalin A. J. Clin. Invest. 1992; 90:196-203.
The animals ([…] of Swiss stock weighing about 20 g) are divided in groups of at least No. 10 animals for group.
The animals receive concanavalin and solvent (treated control group), solvent (polyethylene glycol 400-untreated control group), concanavalin and tested compound dissolved in the solvent (treated groups).
Rats are treated intravenously with concanavalin A (0.3 mg/rat), and after 5 minutes they receive by intraperitoneal injection the tested compounds, at the doses reported in Table 1, dissolved in polyethylenglycol 400.
Eight hours after the concanavalin A injection all the animals were sacrificed and the blood collected and examined. The data, reported in Table 1, are expressed as value of the plasmatic glutamic-pyruvic transaminase percentage of the animals treated with the tested compound with respect to the animals of the treated control group.

[3] = tested on: Human adenocarcinoma HT29 cells; assay: 3H-timidine incorporation in human adenocarcinoma HT29 cells; format: cell-based; details: 15 hours, cells treated only with Cisplatinum = 100; for timidine incorporation, With 25 μM Cisplatinum: compound 200 μM plus Cisplatinum 25 μM; for timidine incorporation, Without Cisplatinum: compound 200 μM
Method: Determination In Vitro of the Effect of the Compounds of the Invention on the Timidine Incorporation in Human Adeno-Carcinoma HT29 Cells. Human adenocarcinoma cells are sown on plates having 24 wells (2.5×10^5 cells/plate) with a standard culture medium. After 24 hours some plates are inoculated with the tested compounds dissolved in dimethylsulphoxide at a 200 μM concentration and others are treated with the tested compounds dissolved in dimethylsulphoxide at a 200 μM concentration in the presence of a solution of cisplatinum 25 μM. After 15 hours of incubation the plates are put into contact with a solution of ^3H-timidine […] (RAS. 3,000 Ci/mol). The cell monolayer of each plate is first washed twice with a cold saline buffer, then treated with TCA (trichloroacetic acid) at 5% for 10 minutes and then washed three times with absolute alcohol. The cells of each well are dissolved in 500 μl of NaOH 0.1N and the incorporated radioactivity is determined by scintallation counting. The obtained results are reported in Table 4 and expressed as percentage of ^3H-Timidine incorporated in the cells treated with the tested compounds and in the presence of Cisplatinum, considering equal to 100 the amount of ^3H-Timidine incorporated in the cells treated only with Cisplatinum.

[4] = tested on: T24 human epithelial cells of bladder cancer; assay: Antiproliferative activity, MTT, bladder cancer line T24; format: cell-based; details: Epithelial cell, 96 h, 4 days, vs DMSO 1%, read-out: Inhibition of the proliferative activity (%); for inhibition at 100 µM: 10^-4 M; for inhibition at 10 µM: 10^-5 M; for inhibition at 1 µM: 10^-6 M
Method: (§1) Determination of the Antiproliferative Activity of the Compounds of the Invention in Cancerous Epithelial Cells of Bladder and Prostate.
(§2) The experiment was carried out by using three human epithelial cellular lines of the prostate cancer (PNT1A; LLNCaP; PC3) and three human epithelial cellular lines of the bladder cancer (T24; 647V; 1207), the various types of cellular lines are identified on the basis of the characteristics, in particular of the aggressiveness, of the cancerous process.
(§3) The cancerous cells are sown, with an initial concentration of 20,000 cells/cm^2, in plates having 96 wells with a cellular culture medium RPMI added with foetal bovine serum 5% and L-Glutamine 1%. Solutions in dimethylsulphoxide of the tested compounds at three different concentrations (10^−6 M; 10^−5M; 10^−4M) or the carrier (DMSO 1%) are added to the culture medium. 4 days after the treatment the cellular growth was measured by the method with MTT (3-[4,5-dimethylthiazol-2-yl]-2,5-diphenyltetrazolium bromide) de-scribed by Turner in: Turner T., Chen P., Goodly L. J., Wells A. Clin. Exp. Metastasis 1996, 14, 409-418. The results, reported in Table 3, are expressed as inhibition percentage of the cellular proliferation determined by measuring the cellular proliferation in the cellular cultures treated with the tested compounds with respect to that measured in cellular cultures treated with dimethylsulphoxide 1%.

[5] = tested on: LNCaP human epithelial cells of prostate cancer; assay: Antiproliferative activity, MTT, prostate cancer line LNCaP; format: cell-based; details: 96 h, 4 days, vs DMSO 1%, read-out: Inhibition of the proliferative activity (%); for inhibition at 100 µM: 10^-4 M; for inhibition at 10 µM: 10^-5 M; for inhibition at 1 µM: 10^-6 M
Method: as §1, §2, §3

[6] = tested on: PC3 human epithelial cells of prostate cancer; assay: Antiproliferative activity, MTT, prostate cancer line PC3; format: cell-based; details: Epithelial cell, 96 h, 4 days, vs DMSO 1%, read-out: Inhibition of the proliferative activity (%); for inhibition at 100 µM: 10^-4 M; for inhibition at 10 µM: 10^-5 M; for inhibition at 1 µM: 10^-6 M
Method: as §1, §2, §3

[7] = tested on: 647V human epithelial cells of bladder cancer; assay: Antiproliferative activity, MTT, bladder cancer line 647V; format: cell-based; details: 96 h, 4 days, vs DMSO 1%, read-out: Inhibition of the proliferative activity (%); for inhibition at 100 µM: 10^-4 M; for inhibition at 10 µM: 10^-5 M; for inhibition at 1 µM: 10^-6 M
Method: as §1, §2, §3

[8] = tested on: 1207 human epithelial cells of bladder cancer; assay: Antiproliferative activity, MTT, bladder cancer line 1207; format: cell-based; details: Epithelial cell, 96 h, 4 days, vs DMSO 1%, read-out: Inhibition of the proliferative activity (%); for inhibition at 100 µM: 10^-4 M; for inhibition at 10 µM: 10^-5 M; for inhibition at 1 µM: 10^-6 M
Method: as §1, §2, §3

[9] = tested on: human epithelial cellular lines of the prostate cancer and of the bladder cancer; assay: Antiproliferative activity in prostate and bladder cancer lines, summary in words; format: cell-based; details: cellular lines LNCaP and PC3, and 647V, 1207
Method: as §2, §3
The compound of Ex. 7, reported in the Table with the simplified denomination of nitrooxybutyl ester of the aspirin der. with ferulic ac. is active, at 10^−5 concentrations, in prostate tumours as shown by the results obtained on the cellular lines LNCaP and PC3.

[10] = tested on: PNT1A human epithelial cells of prostate cancer; assay: Antiproliferative activity, MTT, prostate cancer line PNT1A; format: cell-based; details: 96 h, 4 days, vs DMSO 1%, read-out: Inhibition of the proliferative activity (%); for inhibition at 100 µM: 10^-4 M; for inhibition at 10 µM: 10^-5 M; for inhibition at 1 µM: 10^-6 M
Method: as §1, §2, §3

## CC(=O)Oc1ccccc1C(=O)O [Aspirin, Acetylsalicylic Acid, reference compound]
[1]; HT-29, 500 μM
  activity at 500 µM: 100%
[2]
  response vs control in vivo at 300 mg/kg: 120%
[3]
  timidine incorporation, With 25 μM Cisplatinum: 100%
  timidine incorporation, Without Cisplatinum: 438%

## CC(=O)Oc1ccccc1C(=O)OCc1cccc(CO[N+](=O)[O-])n1 [Ex. 1, 2-acetyloxybenzoic acid 6-(nitrooxymethyl)-2-methylpyridinyl ester hydrochloride]
[1]; HT-29, 10 μM
  activity at 10 µM: 0%

## CC(=O)Oc1ccccc1C(=O)OCc1ccc(CO[N+](=O)[O-])cn1 [Ex. 3, 2-acetyloxybenzoic acid 5-(nitrooxymethyl)-2-methylpyridinyl ester hydrochloride]
[2]
  response vs control in vivo at 300 mg/kg: 5%

## CC(=O)Oc1ccccc1C(=O)OCc1ncccc1CO[N+](=O)[O-] [Ex. 4, 2-acetyloxybenzoic acid 3-(nitrooxymethyl)-2-methylpyridinyl ester hydrochloride]
[2]
  response vs control in vivo at 300 mg/kg: 7%

## CC(=O)Oc1ccccc1C(=O)Oc1cccc(CO[N+](=O)[O-])c1 [Ex. 5, 3-nitrooxymethylphenyl ester of the 2-acetoxybenzoic acid]
[1]; HT-29, 300 μM
  activity at 300 µM: 40%
[3]
  timidine incorporation, With 25 μM Cisplatinum: 46%
  timidine incorporation, Without Cisplatinum: 192%

## COc1cc(/C=C/C(=O)Oc2ccc(NC(C)=O)cc2)ccc1OC(=O)CCCO[N+](=O)[O-] [Ex. 8, trans-3-[4-(4′-nitrooxybutyryloxy)-3-methoxyphenyl]-2-propenoic acid 4-(acetylamino)phenyl ester]
[2]
  response vs control in vivo at 500 mg/kg: 8%

## CC(=O)Nc1ccc(OC(=O)CCCO[N+](=O)[O-])cc1 [Ex. 9, 4-nitrooxybutanoic acid 4′-acetylamino phenyl ester]
[2]
  response vs control in vivo at 500 mg/kg: 10%

## O=C(Oc1cccc(CO[N+](=O)[O-])c1)c1ccccc1O [Ex. 15, 2-hydroxybenzoic Acid 3-(nitrooxymethyl)phenyl ester]
[3]
  timidine incorporation, With 25 μM Cisplatinum: 50%
  timidine incorporation, Without Cisplatinum: 246%

## COc1cc(/C=C/C(=O)OCCCCO[N+](=O)[O-])ccc1OC(=O)C(C)c1ccc(CC(C)C)cc1 (stereo not drawn) [Ex. 16, Trans-3-[4-[α-methyl-[4-(-2-methylpropyl)benzene]acetyloxy]-3-methoxyphenyl]-2-propenoyl 4-(nitrooxy) butyl ester]
[4]
  inhibition at 100 µM: 22%
  inhibition at 10 µM: 0%
  inhibition at 1 µM: 0%
[5]
  inhibition at 100 µM: 60%
  inhibition at 10 µM: 33%
  inhibition at 1 µM: 8%
[6]
  inhibition at 100 µM: 47%
  inhibition at 10 µM: 9%
  inhibition at 1 µM: 4%
[7]
  inhibition at 100 µM: 45%
  inhibition at 10 µM: 0%
  inhibition at 1 µM: 0%
[8]
  inhibition at 100 µM: 43%
  inhibition at 10 µM: 0%
  inhibition at 1 µM: 2%
[9]
  activity in very aggressive prostate and bladder tumours (in words): active
[10]
  inhibition at 100 µM: 20%
  inhibition at 10 µM: 4%
  inhibition at 1 µM: 0%

## COc1cc(/C=C/C(=O)OCCCCO[N+](=O)[O-])ccc1OC(=O)C(C)c1ccc(-c2ccccc2)c(F)c1 (stereo not drawn) [Ex. 17, trans-3-[4-[2-fluoro-α-methyl-(1,1′-biphenyl)-4-acetyloxy]-3-methoxyphenyl]-2-propenoyl 4-(nitrooxy) butyl ester]
[4]
  inhibition at 100 µM: 23%
  inhibition at 10 µM: 0%
  inhibition at 1 µM: 0%
[5]
  inhibition at 100 µM: 58%
  inhibition at 10 µM: 26%
  inhibition at 1 µM: 1%
[6]
  inhibition at 100 µM: 53%
  inhibition at 10 µM: 20%
  inhibition at 1 µM: 8%
[7]
  inhibition at 100 µM: 41%
  inhibition at 10 µM: 13%
  inhibition at 1 µM: 0%
[8]
  inhibition at 100 µM: 34%
  inhibition at 10 µM: 0%
  inhibition at 1 µM: 0%
[9]
  activity in very aggressive prostate and bladder tumours (in words): active
[10]
  inhibition at 100 µM: 13%
  inhibition at 10 µM: 2%
  inhibition at 1 µM: 0%

## CC1=C(CC(=O)OCc2cccc(CO[N+](=O)[O-])n2)c2cc(F)ccc2/C1=C\c1ccc([S+](C)[O-])cc1 (centres unmarked) [Ex. 19]
[2]
  response vs control in vivo at 200 mg/kg: 23%

## CC(=O)Oc1ccccc1C(=O)Oc1ccccc1CO[N+](=O)[O-] [Ex. 20, 2-acetyloxybenzoic acid 2-(nitrooxymethyl)phenyl ester]
[1]; HT-29, 20 μM
  activity at 20 µM: 50%

## CC(=O)Nc1ccc(O)cc1 [Paracetamol, reference compound]
[2]
  response vs control in vivo at 500 mg/kg: 160%

## O=C(O)c1ccccc1O [Salicylic acid, Salicylic Acid, reference compound]
[3]
  timidine incorporation, With 25 μM Cisplatinum: 100%
  timidine incorporation, Without Cisplatinum: 438%

## CC1=C(CC(=O)O)c2cc(F)ccc2/C1=C\c1ccc([S+](C)[O-])cc1 (centres unmarked) [Sulindac, reference compound]
[1]; HT-29, 50 μM
  activity at 50 µM: 100%
[2]
  response vs control in vivo at 200 mg/kg: 115%
